# Counter-ions that a name gives are not always drawn. Like-named read-outs stand apart in the source and are kept apart here.
# Tests used:
# [1] = Aqueous solubility by equilibration, HPLC analysis; type: physicochemical; conditions: for Aq solub: water, ambient temperature, slurried 4-5 days, corrected for weight of counter-ion
# Description: An aliquot of the UHQ water test solvent (1 mL) was added to an accurately weighed sample of the LA1 salts and agitated at ambient temperature for a period of 4 days. A sample was withdrawn, filtered through a […], and analyzed by HPLC. HPLC was used to determine aqueous equilibrium solubility at ambient temperature. […] Samples were slurried in water for 4-5 days before analysis.
# [2] = in vivo
# Description: (§1) In a second experiment, the dose solution was prepared in Tween-80 (0.02%) and 0.5% methyl cellulose in Milli-Q water. IP (2 mg/kg) and IV (1 mg/kg) dose solutions were prepared in a 5% DMSO and 95% PEG-200.
# (§2) The PO (2 mg/kg) dose solution was prepared in Tween-80 (0.02%) and 0.5% methyl cellulose in Milli-Q water. The IV (1 mg/kg) dose solution was prepared in a solution of 5% DMSO and 95% PEG-200.
# (§3) The routes of administration were namely PO (gavage), IP (bolus) and IV (bolus through tail vein). A total of four SD male rats were used aged between 5-6 weeks. The feeding regimen included 12 h fasting and the feed was provided 2 hrs after the dosage inoculation and water was provided ad libidum. The blood collection schedule for PO/IP was at 0.25, 0.5, 1, 2, 4, 8, 10 and 24 h, and for IV it was at 0.12, 0.25, 0.5, 1, 2, 4, 8 and 24 h. For PO dosage, tween-80 (0.02%) and 0.5% methyl cellulose prepared in milli-Q water were used as vehicles; for IP and IV dosage 5% DMSO and 95% PEG-200 were used as vehicles.
# (§4) Stock solution (178 μg/mL) in methanol was further diluted using methanol: water (80:20, v/v) to obtain working solutions in the range of 10.4 to 20745 ng/mL.
# (§5) 50 μL of sample was aliquoted in to pre-labeled vials. To it was added 200 μL of 10% tetrahydrofuran containing IS (100 ng/mL; tolbutamide) and mixed well, vortexed for 5 min followed by centrifugation for 5 min at 14000 rpm for at 4° C. Supernatant was separated and 5 μL of same was injected on LC-MS/MS.
# (§6) Data Analysis: Individual concentration-time data were analyzed using WinNonlin (Version 5.3) by non-compartmental analysis (NCA) method.
# (§7) The routes of administration were namely PO (gavage) and IV (bolus through tail vein). A total of four SD male rats were used aged between 5-6 weeks. The feeding regimen included 12 h fasting and the feed was provided 2 hrs after the dosage inoculation and water was provided ad libitum. The blood collection schedule for PO was at 0.25, 0.5, 1, 2, 4, 8, 10 and 24 h, and for IV it was at 0.12, 0.25, 0.5, 1, 2, 4, 8 and 24 h. For PO dosage, tween-80 (0.02%) and 0.5% methyl cellulose prepared in milli-Q water were used as vehicles; for IV dosage 10% DMSO and 90% PEG-200 were used as vehicles.
# in vivo [3] = conditions: male, rat; for half-life: t1/2,ß
# Description: as §1, §2, §3, §4, §5, §6, §7
# [4] = Rat PK of LA1 free acid, first experiment (2-hydroxypropyl-β-cyclodextrin dose solution); type: in vivo, Sprague Dawley (SD) rats; conditions: 30% 2-hydroxypropyl-β-cyclodextrin in PBS
# Description: In a first experiment, the dose solution was prepared in 30% w:v 2-hydroxypropyl-β-cyclodextrin prepared in PBS at 2 mg/kg. Improved bioavailability was needed.
# in vivo [5] = conditions: male, beagle
# Description: The PO (2 mg/kg) dose solution of micronized LA1 was prepared in 0.1% Tween-80 0.5% (w/v) and methyl cellulose in water.
# The objective of the study was to investigate the preclinical pharmacokinetic profile of LA1 (micronized powder) in Beagle dog. To delineate the plasma concentration vs. time curve and characterize the relevant pharmacokinetic parameters to generate data on the PK properties viz., bioavailability, half-life (b1/2), volume of distribution, Cmax, Tmax, AUC and elimination rate constant of LA1 in Beagle dog.
# LA1 was a coarse material which was micronized using laboratory scale ball mill. […] The micronized LA1 was recovered, weighed and stored in glass container at room temperature. For intravenous drug administration, LA1 excipient compatibility assay for dosing in dogs were carried out.
# In brief, a known amount of LA1 was loaded to a cylindrical capped container made of stainless steel followed by addition of stainless steel balls. The ball mills were rotated on their axis for total of 60 minutes (6 cycles X 10 minutes). The micronized LA1 was recovered, weighed and stored in glass bottle at room temperature.
# Test system: Healthy Beagle dog weighing 10-12 kg (age 10 months), males were used for the study. Crossover design was adopted for the experiments wherein 02 dogs were used in the study for oral and intravenous administration. Both the animals were housed stainless steel cage provided with a hopper to hold pellet feed and a separate water hopper. Temperature and humidity was maintained at 22±3° C. and 40-70%, respectively. The illumination was controlled to give a sequence of 12 h light and 12 h dark cycle. All the animals were adapted to the experimental conditions for at least 5 days prior to dosing. All animals were provided with Pedigree™ standard pellet feed, except for 10 to 12 h before treatment and 4 h after the drug administration. Water was provided ad libidum.
# Formulation and drug administration: Exactly 90 mg of the test item LA1 (micronized powder) was weighed and transferred to a mortar and briefly triturated with pestle. Small volume of vehicle [0.5% (w/v) Carboxy methyl cellulose with 0.1% Tween-80] in water was then added slowly with continuous trituration until a uniform suspension was obtained. The content was then transferred into the measuring cylinder. The mortar was rinsed till the complete transfer of test item into the measuring cylinder was ensured. The final volume was then made up to 225 mL with vehicle to get a uniform suspension with desired concentration of 0.4 mg/mL. Dosing formulations were given by oral gavage at a dose volume not exceeding 5 mL/kg.
# Intravenous drug formulation: Hemolysis assay using dog whole blood was employed to assess the damage of red blood cells for selection of excipient for intravenous dosing. […] Exactly 22.5 mg of the test item (micronized powder) was weighed into a graduated tube. 2.25 mL of DMSO was added drop wise and mixed by vortex. Then, 40.50 mL of Polyethylene glycol 400 (PEG-400) was added in two to three fragments and vortex intermittently. Then 2.25 mL Ethanol was added drop wise and vortex to get clear solution. The formulation was subjected to ultra-sonication for 5 minutes.
# Sample collection: Serial method was used for blood sampling. Blood samples were collected as mentioned in the study design section (7). The blood sample (−1.5 mL) was collected from saphenous vein into labeled tubes, containing 2% w/v K2EDTA solution, as an anticoagulant.
# in vivo [6] = conditions: C57BL/6, mouse
# Description: A mouse melanoma tumor cell line, B16-F10, was used for developing a subcutaneous tumor model. 0.1×10^6 cells were injected subcutaneously in the right flank region of the animal. When the tumors reached ˜45 mm^3 the animals were randomized into various groups, each group with 10 animals, so that the average tumor volume of all the groups was similar. Animals were treated from the day of randomization (Day 1). Tumor dimensions (length and diameter) were measured for all animals three times per week, including the termination day of the study. In addition, throughout the study period, mice were monitored daily for clinical conditions. […] Portions of the blood samples were used for blood analysis and clinical chemistry. Lung, heart, liver, spleen, and kidneys were also collected and histopathological analysis was performed.
# adenosine A2A receptor = adenosine A2A receptor (Homo sapiens, UniProt P29274); test: Adenosine A2A receptor agonist assay
# [7] = rats; cited from earlier work
# [8] = after slurrying in water 4-5 days
# [9] = male, Sprague Dawley, rat, ip, 2 mg/kg
# [10] = male, Sprague-Dawley, rat, ip, 2 mg/kg
# [11] = male, Sprague-Dawley, rat, iv, 1 mg/kg
# [12] = male, Sprague-Dawley, rat, po, 2 mg/kg
# [13] = Sprague Dawley, in vivo, PO 2 mg/kg
# Sequence of adenosine A2A receptor (P29274 whole entry): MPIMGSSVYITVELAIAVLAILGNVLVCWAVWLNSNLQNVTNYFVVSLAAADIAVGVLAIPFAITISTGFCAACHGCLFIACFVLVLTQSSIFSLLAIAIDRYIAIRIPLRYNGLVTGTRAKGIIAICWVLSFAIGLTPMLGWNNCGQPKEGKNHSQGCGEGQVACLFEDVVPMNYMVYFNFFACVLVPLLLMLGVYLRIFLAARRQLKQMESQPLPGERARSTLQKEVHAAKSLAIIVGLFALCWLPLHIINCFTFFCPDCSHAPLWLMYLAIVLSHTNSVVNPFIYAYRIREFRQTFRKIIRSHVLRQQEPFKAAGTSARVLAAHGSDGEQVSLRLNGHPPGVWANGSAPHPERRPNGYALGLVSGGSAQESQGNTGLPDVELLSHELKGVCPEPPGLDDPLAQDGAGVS
compound,measurement,setting,value
O=C(O)c1ccc(-c2ccc(/C=C3\SC(=S)N(Cc4ccccc4)C3=O)o2)cc1 [LA1 choline salt],Appearance,[1]; [8],Darker red color
same,Soln pH,[1]; [8],8
same,HPLC purity (%),[1]; after slurrying in water 4-5 days (chemical stability),75.51%
same,Aq solub,[1]; listed as choline,7.052 mg/mL
same,Aq solub,[1]; listed as choline salt,7.1 mg/mL
same,Rat Cl,"[2]; male, Sprague Dawley, iv, 1 mg/kg",17.6 mL/min/kg
same,Vss,"[2]; male, Sprague Dawley, rat",0.73 L/kg
same,MRT,[2]; [9],1.02 h
same,Rat Cl,"[2]; male, Sprague-Dawley",18 mL/min/kg
same,Rat Cl,"[2]; male, Sprague-Dawley, iv, 1 mg/kg",17.6 mL/min/kg
same,% F (absolute IP bioavailability),"[2]; male, Sprague-Dawley, rat",84%
same,Vss,"[2]; male, Sprague-Dawley, rat",0.73 L/kg
same,AUC0-t,[2]; [10],1657 ng·h/mL
same,AUC0-∞,[2]; [10],1666 ng·h/mL
same,MRT,[2]; [10],1.02 h
same,Tlast,[2]; [10],10.0 h
same,Tmax,[2]; [10],0.25 h
same,AUC0-t,[2]; [11],985 ng·h/mL
same,AUC0-∞,[2]; [11],993 ng·h/mL
same,C0,[2]; [11],1856 ng/mL
same,MRT,[2]; [11],0.72 h
same,Tlast,[2]; [11],7.00 h
same,Vd,[2]; [11],1.78 L/kg
same,AUC0-t,[2]; [12],808 ng·h/mL
same,AUC0-∞,[2]; [12],814 ng·h/mL
same,Tlast,[2]; [12],10.0 h
same,bioavailability,"in vivo [3]; Sprague-Dawley, F (absolute oral bioavailability)",41%
same,MRT,"in vivo [3]; Sprague-Dawley, po, 2 mg/kg, MRT",1.81 h
same,half-life,"in vivo [3]; Sprague-Dawley, po, 2 mg/kg",1.57 h
same,Tmax,"in vivo [3]; Sprague-Dawley, po, 2 mg/kg",0.5 h
"O=C(O)c1ccc(-c2ccc(/C=C3\SC(=S)N(Cc4ccccc4)C3=O)o2)cc1 [LA1, (Z)-4-(5-((3-benzyl-4-oxo-2-thioxothiazolidin-5-ylidene)methyl)furan-2-yl)benzoic acid]",Rat Cl,[4]; PO - 2 mg/kg table,11.1 mL/min/kg
same,Vss,[4]; PO - 2 mg/kg table,0.59 L
same,AUC,[4]; [13],8.7 µM·h
same,MRT,[4]; [13],3.49 h
same,half-life,[4]; [13],2.03 h
same,bioavailability,"[4]; Sprague Dawley, in vivo, PO 2 mg/kg, read-out: Rat F %",15.1%
same,Dog Cl,in vivo [5],2.1 mL/min/kg
same,Dog F % (absolute oral bioavailability),in vivo [5],50%
same,AUC,"in vivo [5]; dog, po, 2 mg/kg",6.1 µM·h
same,Tmax,"in vivo [5]; dog, po, 2 mg/kg",4 h
same,AUC0-t,"in vivo [5]; dog, po, 2 mg/kg, AUC0-12",2570 ng·h/mL
same,Cmax,"in vivo [5]; dog, po, 2 mg/kg, Cmax (peak concentration)",685 ng/mL
same,half-life,"in vivo [5]; dog, po, 2 mg/kg, t1/2 (hr), oral half-life",~2 h
same,concentration at 0.5 h,in vivo [6]; exposure in blood at end of study,383 ± 450 ng/mL
same,concentration at 0.5 h,in vivo [6]; exposure in tumor at end of study,24.7 ± 17.6 ng/mL
same,efficacy in adenosine A2A receptor agonist assay,adenosine A2A receptor,shown efficacy
same,Rat F %,"[2]; po, 2 mg/kg",Exposure too low
same,Vss,"[2]; male, Sprague Dawley, rat",4.19 L/kg
same,MRT,[2]; [9],3.44 h
same,Vss,"[2]; male, Sprague-Dawley, rat",4.19 L/kg
same,AUC0-t,[2]; [10],1481 ng·h/mL
same,AUC0-∞,[2]; [10],1499 ng·h/mL
same,MRT,[2]; [10],3.44 h
same,Tlast,[2]; [10],20.5 h
same,C0,[2]; [11],1317 ng/mL
same,MRT,[2]; [11],3.38 h
same,Tlast,[2]; [11],20.0 h
same,MRT (hr),"[2]; rat, po, 2 mg/kg",Exposure too low
same,neointimal thickening upon vascular injury,[7],reduce neointimal thickening
same,clearance,"in vivo [3]; Sprague Dawley, iv, 1 mg/kg, Rat Cl (ml/min/kg)",19.7 mL/min/kg
same,bioavailability,"in vivo [3]; Sprague-Dawley, % F (absolute IP bioavailability)",82%
same,clearance,"in vivo [3]; Sprague-Dawley, Rat Cl (ml/min/kg)",20 mL/min/kg
same,bioavailability,"in vivo [3]; Sprague-Dawley, ip, 2 mg/kg, % F (absolute IP bioavailability)",81.6%
same,AUC,"in vivo [3]; Sprague-Dawley, ip, 2 mg/kg, AUC in mM*hr",3.5 µM·h
same,Tmax,"in vivo [3]; Sprague-Dawley, ip, 2 mg/kg",0.25 h
same,AUC0-t,"in vivo [3]; Sprague-Dawley, iv, 1 mg/kg, AUC0-t",903 ng·h/mL
same,AUC(0-inf),"in vivo [3]; Sprague-Dawley, iv, 1 mg/kg, AUC0-∞",918 ng·h/mL
same,clearance,"in vivo [3]; Sprague-Dawley, iv, 1 mg/kg, CL",19.7 mL/min/kg
same,Cmax,"in vivo [3]; Sprague-Dawley, iv, 1 mg/kg, Cmax",952 ng/mL
same,clearance,"in vivo [3]; Sprague-Dawley, iv, 1 mg/kg, Rat Cl (ml/min/kg)",19.7 mL/min/kg
same,Vd,"in vivo [3]; Sprague-Dawley, iv, 1 mg/kg, Vd",2.39 L/kg
same,half-life,"in vivo [3]; Sprague-Dawley, iv, 1 mg/kg",1.16 h

# From patent US10723726B2, “Solid forms of (Z)-4-(5-((3-benzyl-4-oxo-2-thioxothiazolidin-5-ylidene)methyl)furan-2-yl)benzoic acid” (GB006, INC., priority 2015, dated 2020)
